Patent US11932645B2, “Substituted pyrazolo[1,5-a]pyrimidines and their use in the treatment of medical disorders” (Bial—R&D Investments, S.A., priority 2014, dated 2024)

Target: T1, glucocerebrosidase (Gcase) (Homo sapiens, UniProt P04062)
T1 sequence (P04062 40-536): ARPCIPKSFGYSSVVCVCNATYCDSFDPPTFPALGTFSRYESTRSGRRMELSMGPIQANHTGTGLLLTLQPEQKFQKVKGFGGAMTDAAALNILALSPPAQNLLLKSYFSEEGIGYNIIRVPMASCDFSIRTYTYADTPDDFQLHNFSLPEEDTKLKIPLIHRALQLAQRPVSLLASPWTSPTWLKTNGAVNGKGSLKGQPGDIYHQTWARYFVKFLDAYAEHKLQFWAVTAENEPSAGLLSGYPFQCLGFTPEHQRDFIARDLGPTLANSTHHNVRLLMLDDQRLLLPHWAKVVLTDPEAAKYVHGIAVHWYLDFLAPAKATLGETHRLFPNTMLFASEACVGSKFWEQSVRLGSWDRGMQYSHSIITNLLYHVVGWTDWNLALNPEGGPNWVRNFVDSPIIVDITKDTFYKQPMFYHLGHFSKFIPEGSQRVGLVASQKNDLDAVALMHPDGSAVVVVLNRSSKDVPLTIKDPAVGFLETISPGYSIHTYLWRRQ
Experiment: Glucocerebrosidase (Gcase) activation assay, 4-methylumbelliferyl-beta-D-glucopyranoside substrate, with saposin C
Type: biochemical
Conditions: 10 nM GCase, 100 nM saposin C, pH 4.7
Method: The ability of exemplary compounds to activate glucocerebrosidase (Gcase) was measured.
A 484 μL aliquot of a 1.0 mg/mL solution of phosphatidylserine (PS) (Sigma P7769) in chloroform was evaporated under a stream of nitrogen for 1 hour. The lipid film was dissolved over 4 minutes of vigorous vortexing in 40 mL of 176 mM K2HPO4/50 mM citric acid (pH 4.7) containing 7.5 μL of triton X-100, resulting in a mixed micellar preparation with a composition of 0.32 mM triton and 0.37 mol % PS. 4-Methylumbelliferyl-beta-D-glucopyranoside (ACROS-337025000) was dissolved in the micellar solution to a final concentration of 2 mM for use as the reaction substrate.
Test compounds were diluted to the desired concentrations with dimethylsulfoxide (DMSO) from 10 mM stocks, and 0.41 μL of the DMSO compound mixture was added to 100 μL of micellar solution containing 10 nM GCase and 100 nM saposin C (Enzo ALX-201-262-C050). Pre-incubation was allowed to occur for 30 minutes at room temperature, after which the reaction was initiated by combining 25 μL of substrate solution with 25 μL of compound/GCase/saposin mixture. The reaction proceeded for 15 minutes at room temperature and was stopped by adding 150 μL of 1M glycine, pH 12.5. The endpoint of the reaction was monitored by measuring fluorescence intensity (excitation: 365 nm; emission: 440 nm) on a SpectraMax i3 instrument (Molecular Devices). Test compounds were screened at 1.0 and 0.1 μM final concentration, and subsequent 8-point dose response curves were obtained using 3-fold dilutions from a maximum final concentration of 5 μM.
For experiments in which the test compound was used at a concentration of 1.0 μM, the symbol “+” indicates less than 30% Gcase activation; the symbol “++” indicates Gcase activation in the range of 30% up to 60%; and the symbol “+++” indicates Gcase activation greater than 60%. For experiments in which the test compound was used at a concentration of 0.1 μM, the symbol “*” indicates less than 10% Gcase activation; the symbol “**” indicates Gcase activation in the range of 10% up to 20%; and the symbol “***” indicates greater than 20% Gcase activation.

SMILES	Percent Gcase Activation 0.1 μM Test Compound	Percent Gcase Activation 1 μM Test Compound
Cc1cc(C)n2ncc(C(=O)NC(C)(C)c3ccc(Cl)cc3)c2n1 [III-67]	** (Gcase activation in the range of 10% up to 20%)	+++ (Gcase activation greater than 60%)
Cc1cc(C)n2ncc(C(=O)Nc3ccc(-n4ccnc4)cc3)c2n1 [III-6]	* (less than 10% Gcase activation)	+ (less than 30% Gcase activation)
C#Cc1ccc(NCc2cnn3c(C)cc(C)cc23)cc1 [III-74]	* (less than 10% Gcase activation)	+ (less than 30% Gcase activation)
Cc1cc(C)n2ncc(C(=O)Nc3ccc(-c4cocn4)nc3)c2n1 [III-19]	* (less than 10% Gcase activation)	+ (less than 30% Gcase activation)
C#C[C@H]1CC[C@@H](NC(=O)c2cnn3c(C)cc(C)nc23)CC1 [III-15]	* (less than 10% Gcase activation)	+ (less than 30% Gcase activation)
Cc1cc(C)n2ncc(C(=O)Nc3ccc(CCC(=O)O)cc3)c2n1 [III-36]	* (less than 10% Gcase activation)	+ (less than 30% Gcase activation)
Cc1cc(C)n2ncc(C(=O)NC3CCc4ccccc43)c2n1 (centres unmarked) [III-79]	** (Gcase activation in the range of 10% up to 20%)	–
C#Cc1ccc(NC(=O)c2cnn3c(C)cc(C)nc23)nc1 [III-1]	* (less than 10% Gcase activation)	++ (Gcase activation in the range of 30% up to 60%)
Cc1cc(C)n2ncc(C(=O)Nc3ccc(-c4cc[nH]n4)cc3)c2n1 [III-31]	* (less than 10% Gcase activation)	+ (less than 30% Gcase activation)
Cc1cc(C)n2ncc(CNc3ccc(-c4cocn4)cc3)c2n1 [III-37]	* (less than 10% Gcase activation)	+ (less than 30% Gcase activation)
CCCCCOc1ccc(NC(=O)c2cnn3c(C)cc(C)nc23)cc1 [III-32]	** (Gcase activation in the range of 10% up to 20%)	+++ (Gcase activation greater than 60%)
Cc1cc(C)n2ncc(C(=O)Nc3cc(-c4ccccc4)on3)c2n1 [III-12]	* (less than 10% Gcase activation)	+ (less than 30% Gcase activation)
Cc1cc(Cl)n2ncc(C(=O)NC(C)(C)c3ccc(Cl)cc3)c2n1 [III-68]	** (Gcase activation in the range of 10% up to 20%)	+++ (Gcase activation greater than 60%)
Cc1cc(C)n2ncc(C(=O)Nc3ccc4nc(C)oc4c3)c2n1 [III-44]	* (less than 10% Gcase activation)	+ (less than 30% Gcase activation)
Cc1cc(C)n2ncc(C(=O)Nc3ccc(-c4ccncc4)nc3)c2n1 [III-21]	* (less than 10% Gcase activation)	+ (less than 30% Gcase activation)
Cc1cc(C)n2ncc(C(=O)Nc3ccc(C#CCN(C)C)cc3)c2n1 [IV-2]	* (less than 10% Gcase activation)	+ (less than 30% Gcase activation)
Cc1cc(C)n2ncc(C(=O)Nc3ccc(-c4ccco4)nc3)c2n1 [III-22]	* (less than 10% Gcase activation)	++ (Gcase activation in the range of 30% up to 60%)

SMILES	Percent Gcase Activation 0.1 μM Test Compound	Percent Gcase Activation 1 μM Test Compound
Cc1cc(C)n2ncc(C(=O)Nc3ccc4[nH]ncc4c3)c2n1 [III-41]	* (less than 10% Gcase activation)	+ (less than 30% Gcase activation)
Cc1cc(C)n2ncc(C(=O)Nc3ccc4nc(C)sc4c3)c2n1 [III-50]	* (less than 10% Gcase activation)	++ (Gcase activation in the range of 30% up to 60%)
C#C[C@H]1CC[C@H](NC(=O)c2cnn3c(C)cc(C)nc23)CC1 [III-14]	* (less than 10% Gcase activation)	+ (less than 30% Gcase activation)
Cc1cc(C)n2ncc(C(=O)NC3CCCc4ccccc43)c2n1 (centres unmarked) [III-58]	*** (greater than 20% Gcase activation)	+++ (Gcase activation greater than 60%)
C#CCOc1ccc(NC(=O)c2cnn3c(C)cc(C)nc23)cc1 [III-33]	* (less than 10% Gcase activation)	+ (less than 30% Gcase activation)
C#Cc1ccc(NC(=O)c2cnn3c(C)cc(NC)nc23)cc1 [III-77]	*** (greater than 20% Gcase activation)	+++ (Gcase activation greater than 60%)
Cc1cc(C)n2ncc(C(=O)Nc3ccc(-c4ccon4)cc3)c2n1 [III-9]	* (less than 10% Gcase activation)	+++ (Gcase activation greater than 60%)
Cc1cc(C)n2ncc(C(=O)Nc3ccc4oncc4c3)c2n1 [III-47]	* (less than 10% Gcase activation)	+ (less than 30% Gcase activation)
Cc1cc(C)n2ncc(C(=O)Nc3ccc(-c4cccs4)nc3)c2n1 [III-20]	*** (greater than 20% Gcase activation)	+++ (Gcase activation greater than 60%)
C#Cc1ccc(NC(=O)c2cnn3c(NC)cc(C)nc23)cc1 [III-78]	** (Gcase activation in the range of 10% up to 20%)	+ (less than 30% Gcase activation)
COc1ccccc1[C@@H](C)NC(=O)c1cnn2c(C)cc(C)nc12 [III-62]	* (less than 10% Gcase activation)	+++ (Gcase activation greater than 60%)
Cc1cc(C)n2ncc(C(=O)Nc3nc4ccccc4[nH]3)c2n1 [III-28]	* (less than 10% Gcase activation)	+ (less than 30% Gcase activation)
COc1ccccc1[C@H](C)NC(=O)c1cnn2c(C)cc(C)nc12 [III-61]	** (Gcase activation in the range of 10% up to 20%)	+++ (Gcase activation greater than 60%)
Cc1cc(C)n2ncc(C(=O)Nc3cc(C4(C(F)(F)F)CC4)on3)c2n1 [III-18]	* (less than 10% Gcase activation)	+ (less than 30% Gcase activation)
Cc1cc(C)n2ncc(C(=O)NC(C)(C)c3ccc(F)cc3F)c2n1 [III-70]	** (Gcase activation in the range of 10% up to 20%)	+++ (Gcase activation greater than 60%)
Cc1cc(C)n2ncc(C(=O)Nc3ccc4c(c3)CCC4)c2n1 [IV-5]	** (Gcase activation in the range of 10% up to 20%)	+++ (Gcase activation greater than 60%)
